Literature values in US20150073057A1, “COMPOSITION AND METHOD FOR TREATMENT OF DIABETES” (BioKier, Inc., priority 2013, published 2015).

Test system: overweight and obese human subjects

In the case of “Oxyntomodulin: a gut hormone, 37 amino acid peptide co-secreted along with GLP-1 from L-cells”, the “reduction of energy intake” value is given as ~17%.
